This assay has as its system B6C3F1 mice, intracerebral ependymoblastoma, median survival T/C. The assay can be described thus: NCI In Vivo Anticancer Drug Screen. Data for tumor model Ependymoblastoma (intracerebral) in B6C3F1 mice. The conditions noted are these: endpoint: median survival time, higher = longer survival. The protocol:
The antitumor activity of compounds was measured in mice bearing transplantable tumors. Survival or tumor size were measured and the results are expressed as the measurement made in the treated group (T) divided by the measurement made in the vehicle treated control group (C). The tumor model used in this assay is Ependymoblastoma (intracerebral) in B6C3F1 mice

Values joined by “and” are separate entries in the source; they are usually repeats but may differ in a detail not shown here. Identical values can stand only once. Toxic doses and inconclusive results are not listed.

On to `Nc1nc(=S)c2ncn(C3CC(O)C(CO)O3)c2[nH]1` (stereo not drawn), for which the T/C runs as follows: (dose: 4.0 mg/kg/injection, schedule: Q01DX005 (ip), vehicle: saline with Tween-80) 93 % of control and 96 % of control; (dose: 8.0 mg/kg/injection, schedule: Q01DX005 (ip), vehicle: saline with Tween-80) 103 % of control; (dose: 16.0 mg/kg/injection, schedule: Q01DX005 (ip), vehicle: saline with Tween-80) 92 % of control; (dose: 32.0 mg/kg/injection, schedule: Q01DX005 (ip), vehicle: saline with Tween-80) 91 % of control and 102 % of control; (dose: 64.0 mg/kg/injection, schedule: Q01DX005 (ip), vehicle: saline with Tween-80) 100 % of control and 90 % of control.

With `S=P(N1CC1)(N1CC1)N1CC1.[Cl-].[Cl-].[NH2-].[NH2-].[Pt+4]`, the T/C (dose: 3.0 mg/kg/injection, schedule: Q01DX005 (ip), vehicle: dextrose) was 122 % of control and the T/C (dose: 6.0 mg/kg/injection, schedule: Q01DX005 (ip), vehicle: dextrose) was 155 % of control.

Regarding `O=NN(CCCl)C(=O)NC1OC(CO)C(O)C(O)C1O` (stereo not drawn), the T/C (dose: 0.31 mg/kg/injection, schedule: Q01DX009 (ip), vehicle: saline) is 104 % of control; the T/C (dose: 0.63 mg/kg/injection, schedule: Q01DX009 (ip), vehicle: saline) was 115 % of control; the T/C (dose: 1.0 mg/kg/injection, schedule: Q01DX005 (ip), vehicle: saline) was 119 % of control; the T/C (dose: 2.0 mg/kg/injection, schedule: Q01DX005 (ip), vehicle: saline) is 113 % of control; the T/C (dose: 4.0 mg/kg/injection, schedule: Q01DX001 (ip), vehicle: saline) was 108 % of control; the T/C (dose: 4.0 mg/kg/injection, schedule: Q01DX005 (ip), vehicle: saline) was 122 % of control. The T/C is 105 % of control (dose: 8.0 mg/kg/injection, schedule: Q01DX001 (ip), vehicle: saline); 105 % of control (dose: 16.0 mg/kg/injection, schedule: Q01DX001 (ip), vehicle: saline); 100 % of control (dose: 32.0 mg/kg/injection, schedule: Q01DX001 (ip), vehicle: saline); 108 % of control (dose: 64.0 mg/kg/injection, schedule: Q01DX001 (ip), vehicle: saline); 94 % of control (dose: 128.0 mg/kg/injection, schedule: Q01DX001 (ip), vehicle: saline).

As for `C=CCSc1ncnc2c1ncn2C1OC(CO)C(O)C1O` (stereo not drawn), the T/C is, setting by setting: (dose: 37.5 mg/kg/injection, schedule: Q01DX005 (ip), vehicle: saline with Tween-80) 98 % of control; (dose: 75.0 mg/kg/injection, schedule: Q01DX005 (ip), vehicle: saline with Tween-80) 114 % of control; (dose: 150.0 mg/kg/injection, schedule: Q01DX005 (ip), vehicle: saline with Tween-80) 120 % of control; (dose: 300.0 mg/kg/injection, schedule: Q01DX005 (ip), vehicle: saline with Tween-80) 106 % of control.

For the molecule `Nc1ncn(C2OC(CO)C(O)C2O)c(=O)n1` (stereo not drawn), the T/C by setting is: (dose: 0.59 mg/kg/injection, schedule: Q03HX024 (ip), vehicle: saline) 111 % of control; (dose: 0.75 mg/kg/injection, schedule: Q01DX005 (ip), vehicle: saline) 116 % of control; (dose: 1.17 mg/kg/injection, schedule: Q03HX024 (ip), vehicle: saline) 109 % of control; (dose: 1.5 mg/kg/injection, schedule: Q01DX005 (ip), vehicle: saline) 109 % of control; (dose: 2.34 mg/kg/injection, schedule: Q03HX024 (ip), vehicle: saline) 116 % of control; (dose: 3.0 mg/kg/injection, schedule: Q01DX005 (ip), vehicle: saline) 116 % of control. Also, the T/C (dose: 9.38 mg/kg/injection, schedule: Q03HX024 (ip), vehicle: saline) is 154 % of control.

Take `COC12C(COC(N)=O)C3=C(C(=O)C(C)=C(N)C3=O)N1CC1C2N1C` (stereo not drawn): the T/C (dose: 2.0 mg/kg/injection, schedule: Q01DX005 (ip), vehicle: Klucel (hydroxypropylcellulose) (HPC)) is 105 % of control and 110 % of control; the T/C (dose: 4.0 mg/kg/injection, schedule: Q01DX005 (ip), vehicle: Klucel (hydroxypropylcellulose) (HPC)) is 112 % of control and 114 % of control.

As to `CC(C)(C)N1CC1CNC(=O)C(=O)NCC1CN1C(C)(C)C` (stereo not drawn), the T/C by setting is: (dose: 1.5 mg/kg/injection, schedule: Q01DX005 (ip), vehicle: saline with Tween-80) 96 % of control; (dose: 3.0 mg/kg/injection, schedule: Q01DX005 (ip), vehicle: saline with Tween-80) 102 % of control and 112 % of control; (dose: 3.12 mg/kg/injection, schedule: Q01DX005 (ip), vehicle: saline with Tween-80) 112 % of control; (dose: 6.0 mg/kg/injection, schedule: Q01DX005 (ip), vehicle: saline with Tween-80) 102 % of control and 114 % of control; (dose: 6.25 mg/kg/injection, schedule: Q01DX005 (ip), vehicle: saline with Tween-80) 116 % of control; (dose: 12.0 mg/kg/injection, schedule: Q01DX005 (ip), vehicle: saline with Tween-80) 115 % of control and 119 % of control.

In the case of `CC(CN1CC(=O)NC(=O)C1)N1CC(=O)NC(=O)C1` (stereo not drawn), the T/C by setting is: (dose: 8.0 mg/kg/injection, schedule: Q01DX001 (ip), vehicle: Klucel (hydroxypropylcellulose) (HPC)) 101 % of control and 102 % of control; (dose: 16.0 mg/kg/injection, schedule: Q01DX001 (ip), vehicle: Klucel (hydroxypropylcellulose) (HPC)) 104 % of control and 86 % of control; (dose: 32.0 mg/kg/injection, schedule: Q01DX001 (ip), vehicle: Klucel (hydroxypropylcellulose) (HPC)) 101 % of control and 102 % of control; (dose: 64.0 mg/kg/injection, schedule: Q01DX001 (ip), vehicle: Klucel (hydroxypropylcellulose) (HPC)) 103 % of control and 109 % of control; (dose: 128.0 mg/kg/injection, schedule: Q01DX001 (ip), vehicle: Klucel (hydroxypropylcellulose) (HPC)) 99 % of control and 103 % of control.

Consider `CN1c2c(nc(N)[nH]c2=O)NCC1CCNc1ccc(C(=O)NC(CCC(=O)O)C(=O)O)cc1` (stereo not drawn), for which the T/C by setting is: (dose: 50.0 mg/kg/injection, schedule: Q#ADX018 (ip), vehicle: saline) 114 % of control; (dose: 100.0 mg/kg/injection, schedule: Q01DX009 (ip), vehicle: saline) 111 % of control and 114 % of control; (dose: 100.0 mg/kg/injection, schedule: Q12HX018 (ip), vehicle: saline) 122 % of control; (dose: 100.0 mg/kg/injection, schedule: Q#A X018 (ip), vehicle: saline) 195 % of control; (dose: 100.0 mg/kg/injection, schedule: Q#ADX018 (ip), vehicle: saline) 114 % of control; (dose: 200.0 mg/kg/injection, schedule: Q01DX009 (ip), vehicle: saline) 105 % of control and 115 % of control. Moreover, the T/C is, setting by setting: (dose: 200.0 mg/kg/injection, schedule: Q#A X018 (ip), vehicle: saline) 216 % of control; (dose: 200.0 mg/kg/injection, schedule: Q#ADX018 (ip), vehicle: saline) 119 % of control; (dose: 400.0 mg/kg/injection, schedule: Q01DX009 (ip), vehicle: saline) 109 % of control; (dose: 400.0 mg/kg/injection, schedule: Q#A X018 (ip), vehicle: saline) 190 % of control; (dose: 800.0 mg/kg/injection, schedule: Q01DX009 (ip), vehicle: saline) 121 % of control and 122 % of control; (dose: 1600.0 mg/kg/injection, schedule: Q01DX009 (ip), vehicle: saline) 120 % of control.

Turning to `CN(C)CCCNc1c2ccccc2nc2cccc([N+](=O)[O-])c12`, the T/C (dose: 0.06 mg/kg/injection, schedule: Q01DX001 (oral), vehicle: saline) is 102 % of control; the T/C (dose: 0.06 mg/kg/injection, schedule: Q01DX005 (ip), vehicle: saline) is 103 % of control and 105 % of control and 112 % of control; the T/C (dose: 0.12 mg/kg/injection, schedule: Q01DX001 (oral), vehicle: saline) is 98 % of control; the T/C (dose: 0.12 mg/kg/injection, schedule: Q01DX005 (ip), vehicle: saline) was 92 % of control; the T/C (dose: 0.13 mg/kg/injection, schedule: Q01DX005 (ip), vehicle: saline) was 102 % of control; the T/C (dose: 0.25 mg/kg/injection, schedule: Q01DX001 (oral), vehicle: saline) is 103 % of control. Besides, the T/C runs as follows: (dose: 0.5 mg/kg/injection, schedule: Q01DX001 (oral), vehicle: saline) 100 % of control; (dose: 1.0 mg/kg/injection, schedule: Q01DX001 (oral), vehicle: saline) 108 % of control; (dose: 2.0 mg/kg/injection, schedule: Q01DX001 (oral), vehicle: saline) 108 % of control; (dose: 4.0 mg/kg/injection, schedule: Q01DX001 (oral), vehicle: saline) 103 % of control; (dose: 16.0 micrograms/kg/injection, schedule: Q01DX005 (ip), vehicle: saline) 100 % of control and 110 % of control; (dose: 32.0 micrograms/kg/injection, schedule: Q01DX005 (ip), vehicle: saline) 100 % of control and 102 % of control. Also, the T/C runs as follows: (dose: 63.0 micrograms/kg/injection, schedule: Q01DX005 (ip), vehicle: saline) 97 % of control and 104 % of control; (dose: 125.0 micrograms/kg/injection, schedule: Q01DX005 (ip), vehicle: saline) 100 % of control and 106 % of control.

The record behind these values is PubChem BioAssay AID226 (DTP/NCI, 2004).
